Experimental findings from patent US20250257060A1, “OXADIAZOLE COMPOUND, PHARMACEUTICAL COMPOSITION COMPRISING SAME, AND USE THEREOF” (SUZHOU GENHOUSE BIO CO., LTD., priority 2022, published 2025) are described below.

Data set [1] can be described thus: Phase I metabolic stability in rat liver microsomes (RLMs). Type of data set: in vitro ADME, Sprague-Dawley rats. As to conditions: RLM; for Remaining rate (NCF = 60 min): buffer instead of NADPH regeneration system; for Remaining rate (T = 60 min): with NADPH; for CLint scaled at 1 µM / half-life at 1 M / microsomal CLint at 1 µM: Sprague-Dawley, rat, liver microsomes, pH 7.4; for microsomal CLint at 1 µM: read-out: CLint (mic). As for the experimental part: (§1) Phase I metabolic stability of the test compounds in liver microsomes of CD-1 mice (MLMs), Sprague-Dawley rats (RLMs), beagle dogs (DLMs), cynomolgus monkeys (CLMs), and humans (HLMs) was evaluated.
(§2) The animal and human liver microsomes used in the test system were purchased from Xenotech, Corning, or other qualified suppliers and stored in a freezer at a temperature below −60° C. prior to use.
(§3) The test samples and control compounds were separately incubated with animal and human liver microsomes at 37±1° C. for a period of incubation time up to 60 min. The samples were removed at the indicated time points, and the reaction was stopped with acetonitrile or other organic solvents containing an internal standard. After centrifugation, the resulting supernatants were assayed by liquid chromatography-tandem mass spectrometry (LC-MS/MS).
(§4) 73.21 g of dipotassium hydrogenphosphate trihydrate and 10.78 g of potassium dihydrogenphosphate were dissolved in 4000 mL of ultrapure water. The solution was adjusted to pH 7.40±0.10 with 10% phosphoric acid or 1 M potassium hydroxide to make a final concentration of 100 mM.
(§5) The test sample powder was prepared into a stock solution at a certain concentration with DMSO or other organic solvents, which was then further diluted with a proper organic solvent.
(§6) Microsomes of each species were diluted into a 2× working solution with a 100 mM potassium phosphate buffer. The final concentration of the microsomes in the reaction system was 0.5 mg/mL.
(§7) An appropriate amount of nicotinamide adenine dinucleotide phosphate (NADP) and isocitric acid (ISO) powder was weighed out, dissolved in a magnesium chloride solution, and shaken and mixed well. An appropriate amount of isocitrate dehydrogenase (IDH) was added, and the mixture was mixed well by gently turning upside down. The final concentrations in the reaction system were: 1 mM NADP, 1 mM magnesium chloride, 6 mM ISO, and 1 unit/mL IDH.
(§8) Incubation was performed in a 96-well plate. Eight incubation plates were prepared and designated T0, T5, T15, T30, T45, T60, Blank60, and NCF60, respectively. The first 6 plates corresponded to reaction time points of 0, 5, 15, 30, 45, and 60 min, respectively. No test sample or control compound was added to the Blank60 plate, and samples were taken after 60 min of incubation. In the NCF60 plate, incubation was performed for 60 min using the potassium phosphate buffer instead of the NADPH regeneration system solution. Three replicates were made for samples in all conditions.
(§9) The microsomes and the test sample or control compound were mixed, and then the incubation plates Blank60, T5, T15, T30, T45, and T60 except for TO and NCF60 were placed in a 37° C. water bath for pre-incubation for about 10 min. In the incubation plate TO, a stop solution was first added, followed by addition of the NADPH regeneration system working solution, and 98 μL of the potassium phosphate buffer was added to each sample well of the incubation plate NCF60 to initiate the reaction. After the pre-incubations of the incubation plates Blank60, T5, T15, T30, T45, and T60 were completed, 98 μL of the NADPH regeneration system working solution was added to each sample well to initiate the reaction. The reaction temperature was 37±1° C., the final volume of the reaction was 200 μL, and the reaction system included 0.5 mg/mL microsomes, […], 1 mM NADP, 6 mM ISO, and 1 unit/mL IDH.
(§10) At 5 min, 15 min, 30 min, 45 min, and 60 min, a cold stop solution containing an internal standard was added to the reaction plate to stop the reaction.
(§11) All the reaction plates after the reaction was stopped were shaken well and centrifuged at 3220×g at 4° C. for 20 min. After the supernatant was diluted according to a certain proportion, LC-MS/MS analysis was performed.
(§12) Sample analysis was performed by the liquid chromatography-tandem mass spectrometry (LC-MS/MS) method without standard curves and quality control samples. […]
On the technique in general: Liver microsomes are vesicles of endoplasmic reticulum, rich in cytochrome P450 enzymes.

Data set [2] has as its system acetylation level of α-tubulin in HCT116 cells. Description: Assay on acetylation level of α-tubulin, HCT116 cells. Type of data set: cell-based. As to conditions: Homo sapiens, HCT-116, 6 h. How it is done: A375/HCT116/HCC827 cells at a logarithmic growth phase were taken, digested with a […] (trypsin), centrifuged, counted, and plated in a 96-well plate at an appropriate cell density (30,000 cells/well) at 100 µL/well, and an appropriate amount of PBS was added around the plate for water sealing. The next day, the cells were treated with the compounds at different concentrations (starting at 100 μM, 5-fold dilution, 9 concentration gradients). After 6 h, the medium was pipetted out and the cells were washed twice with 100 μL of PBST. The cells were then immobilized in 4% paraformaldehyde, and the plate was incubated at room temperature for 20 min. The stationary liquid was discarded and the cells were washed with PBST. 150 μL of special blocking buffer (containing 1% Triton-100) was added to each well for blocking at room temperature for 2 h, and the plate was washed with PBS to remove excess blocking buffer. α-tubulin (DM1A) mouse mAb and acetyl-α-tubulin (Lys40) (D20G3) XP rabbit mAb were diluted at a 1:2000 ratio with a blocking buffer containing 0.033% Triton-100. The dilutions were added to the 96-well plate and the plate was incubated overnight at 4° C. Meanwhile, a blank control group was set. The next day, the plate was washed twice with PBST. Secondary anti-mouse IgG (H+L) (DyLight™ 680 conjugate) and anti-rabbit IgG (H+L) (DyLight™ 800 conjugate) were diluted at a 1:2000 ratio with a blocking buffer containing 0.033% Triton-100. The dilutions were added to a 96-well plate and the plate was incubated at room temperature for 2 h. The plate was washed twice with PBST and once with PBS. Fluorescence signals at 700 nm and 800 nm were detected with a Li-COR Odyssey two-color near-infrared laser imager.

Data set [3] can be described thus: Phase I metabolic stability in mouse liver microsomes (MLMs). Type of data set: in vitro ADME, CD-1 mice. To be noted: MLM; for CLint scaled at 1 µM / half-life at 1 M / microsomal CLint at 1 M: CD-1, mouse, liver microsomes, pH 7.4; for microsomal CLint at 1 M: read-out: CLint (mic); for Remaining rate (NCF = 60 min): buffer instead of NADPH regeneration system; for Remaining rate (T = 60 min): with NADPH. As for the experimental part:
as §1, §2, §3, §4, §5, §6, §7, §8, §9, §10, §11, §12

Data set [4] can be described thus: Phase I metabolic stability in human liver microsomes (HLMs). To be noted: HLM; for Remaining rate (NCF = 60 min): buffer instead of NADPH regeneration system; for Remaining rate (T = 60 min): with NADPH; for CLint scaled at 1 µM / half-life at 1 M / microsomal CLint at 1 M: human, liver microsomes, pH 7.4; for microsomal CLint at 1 M: read-out: CLint (mic). Type of data set: in vitro ADME, humans. How it is done:
as §1, §2, §3, §4, §5, §6, §7, §8, §9, §10, §11, §12

For the molecule `CC(F)(F)C(=O)N[C@@H]1CCCC[C@H]1N1Cc2ccc(-c3nnc(C(F)F)o3)cc2S1(=O)=O` [Compound 1], in data set [1], the “Remaining rate (NCF = 60 min)” value is on record as 100.2%, the “Remaining rate (T = 60 min)” value was 68.9%, the CLint scaled at 1 µM turned out to be 25.8 mL/min/kg and the half-life at 1 M was 1.61 h. For the same molecule, the microsomal CLint at 1 µM in data set [1] worked out at 14.4 µL/min/mg. The molecule also registered an EC50 in data set [2] of 262 nM. Further, in data set [3], the CLint scaled at 1 µM is below 38 mL/min/kg, the half-life at 1 M was above 2.42 h, the microsomal CLint at 1 M was below 9.6 µL/min/mg and the “Remaining rate (NCF = 60 min)” value was 97.6%. Besides, in data set [3], the “Remaining rate (T = 60 min)” value is 79.8%. Besides, in data set [4], the “Remaining rate (NCF = 60 min)” value is recorded as 83.4%, the “Remaining rate (T = 60 min)” value was determined as 79.0%, the intrinsic clearance (CLint scaled) at 1 µM was below 8.6 mL/min/kg and the half-life at 1 M was above 2.42 h. The microsomal CLint at 1 M in data set [4] was below 9.6 µL/min/mg.
Turning to `O=C(N[C@@H]1CCCC[C@H]1N1Cc2ccc(-c3nnc(C(F)F)o3)cc2S1(=O)=O)C(F)F` [Compound 2], in data set [1], the “Remaining rate (NCF = 60 min)” value was found to be 93.0%, the “Remaining rate (T = 60 min)” value came out at 76.4%, the intrinsic clearance (CLint scaled) at 1 µM is below 17.3 mL/min/kg and the half-life at 1 M is above 2.42 h. Moreover, the microsomal CLint at 1 µM in data set [1] is below 9.6 µL/min/mg. The EC50 in data set [2] amounted to 140 ± 39.1 nM. Moreover, in data set [3], the intrinsic clearance (CLint scaled) at 1 µM is below 38 mL/min/kg, the half-life at 1 M is above 2.42 h, the microsomal CLint at 1 M was below 9.6 µL/min/mg and the “Remaining rate (NCF = 60 min)” value is 99.8%. The “Remaining rate (T = 60 min)” value in data set [3] is reported as 84.8%. Further, in data set [4], the “Remaining rate (NCF = 60 min)” value is recorded as 97.3%, the “Remaining rate (T = 60 min)” value is 86.1%, the CLint scaled at 1 µM is below 8.6 mL/min/kg and the half-life at 1 M was above 2.42 h. For the same molecule, the microsomal CLint at 1 M in data set [4] was below 9.6 µL/min/mg.
On to `O=C(N[C@H]1[C@H](N2Cc3ccc(-c4nnc(C(F)F)o4)cc3S2(=O)=O)CCCC1(F)F)C(F)F` [Compound 61], for which, in data set [1], the “Remaining rate (NCF = 60 min)” value turned out to be 88.24%, the “Remaining rate (T = 60 min)” value is reported as 72.95%, the intrinsic metabolic clearance (CLint scaled) at 1 µM amounted to 19.4 mL/min/kg and the half-life at 1 M came out at 2.14 h. A half-maximal response in data set [2] (EC50) required 195 nM. For the same molecule, in data set [3], the CLint scaled at 1 µM amounted to 18.6 mL/min/kg, the half-life at 1 M turned out to be 4.9 h, the “Remaining rate (NCF = 60 min)” value turned out to be 83.81% and the “Remaining rate (T = 60 min)” value is reported as 85.14%. In data set [4], the “Remaining rate (NCF = 60 min)” value stood at 86.25%, the “Remaining rate (T = 60 min)” value is on record as 85.62%, the CLint scaled at 1 µM is 7.26 mL/min/kg and the half-life at 1 M is 3.99 h.

What is called CLint scaled is the capacity of the preparation to metabolise the compound, expressed as a volume cleared per time. The low end stands for greater metabolic stability, the high end for faster metabolism. Usually half-life stands for how long it takes for the measured level to halve. The low end stands for fast loss, the high end for slow loss. For orientation: EC50 means the concentration that produces a half-maximal response. Read a high EC50 as lower potency in that assay.
